Source: US12691101B2, “Compound and method for preventing or treating of respiratory diseases comprising the same as an active ingredient” (YONSEI UNIVERSITY, UNIVERSITY - INDUSTRY FOUNDATION (UIF), priority 2019, dated 2026)

Each compound was assayed against T1, human wild-type (WT)-pendrin (Homo sapiens, UniProt O43511) (assay: Pendrin-mediated Cl^−/I^− exchange activity, YFP fluorescence in CHO-K1 cells). Conditions: CHO-K1, 30 μM; read-out: Pendrin inhibitory activity at 30 μM (%).
T1 construct: expressed in transfected cells
T1 sequence (O43511 1-780): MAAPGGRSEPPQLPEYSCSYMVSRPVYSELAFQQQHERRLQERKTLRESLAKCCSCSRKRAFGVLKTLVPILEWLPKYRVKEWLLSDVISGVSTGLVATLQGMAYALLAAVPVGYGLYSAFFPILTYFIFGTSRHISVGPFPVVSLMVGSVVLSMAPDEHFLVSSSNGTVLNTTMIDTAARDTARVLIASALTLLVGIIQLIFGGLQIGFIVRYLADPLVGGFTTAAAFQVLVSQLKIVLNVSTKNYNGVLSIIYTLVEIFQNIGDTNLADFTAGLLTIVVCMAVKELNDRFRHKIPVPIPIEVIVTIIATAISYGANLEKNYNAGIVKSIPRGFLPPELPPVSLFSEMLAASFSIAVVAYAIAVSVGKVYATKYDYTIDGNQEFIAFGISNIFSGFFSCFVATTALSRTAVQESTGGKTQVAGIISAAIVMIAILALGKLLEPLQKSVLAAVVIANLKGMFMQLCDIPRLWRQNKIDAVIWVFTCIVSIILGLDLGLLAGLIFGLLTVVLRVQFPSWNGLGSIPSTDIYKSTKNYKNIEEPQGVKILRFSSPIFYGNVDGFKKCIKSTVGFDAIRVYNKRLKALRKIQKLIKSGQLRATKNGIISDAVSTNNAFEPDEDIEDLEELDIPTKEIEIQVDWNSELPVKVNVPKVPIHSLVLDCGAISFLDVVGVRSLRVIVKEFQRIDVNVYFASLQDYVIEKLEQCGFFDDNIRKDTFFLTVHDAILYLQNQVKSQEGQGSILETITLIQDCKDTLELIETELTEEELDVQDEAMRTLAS
Format: cell-based
Protocol: Chinese hamster ovary (CHO)-K1 cells were maintained in a DMEM medium containing 10% fetal bovine serum (FBS), 100 units/ml penicillin and 100 100 μg/ml streptomycin. CHO-K1 cells were stably transfected with pcDNA3.1 encoding halide sensor YFP-H148Q/I152L/F46L and human wild-type (WT)-pendrin. For distribution of primary culture of human nasal cavity epithelium (HNE) cells, passage-2 cells were seeded into transwell-transparent culture inserts with a pore size of 0.45 μm (Costar Co., Cambridge, MA) at a density of 2×10^5 cells/cm^2. The cells were maintained in a 1:1 mixture of Dulbecco's modified Eagle's medium (Lonza, Walkersville, MD) and bronchial epithelial growth medium (Lonza) supplemented with the following growth factors according to the manufacturer's instructions. After immersing the cells for the first 7 days, they were exposed to the apical air interface for the remainder of the culture period. After establishment of the air-liquid interface, the cells were used between 14 and 21 days. At all stages of culture, the cells were maintained at 37° C. under 5% CO2 in an air incubator.
CHO-K1 cells expressing human WT pendrin and YFP-F46L/H148Q/I152L were plated on a 96-well microplate at a density of 2×10^4 cells per well and cultured for 48 hours. Each well of the cell cultured 96-well plate was washed with PBS of 200 μL twice and was filled with HEPES buffer solution of 50 μL, respectively. […] After culturing at 37° C. for 10 minutes, the 96-well plate was positioned on FLUOstar Omega microplate reader (BMG Labtech, Ortenberg, Germany) for fluorescence analysis. By continuously (400 ms per point) recording fluorescence for 1 second (base line), each well was individually analyzed for pendrin-mediated I^− inflow, and then at 1 second, 50 μL of NaI-substituted HEPES buffer solution (NaI replacing NaCl) was added using a liquid injector and the YFP fluorescence was recorded for 5 seconds. The initial iodide inflow rate was determined from the initial slope of fluorescence by nonlinear regression, after injection the iodide (See FIG. 1).
For measurement of Cl^−/I^− exchange activity, YFP fluorescence was measured in pendrin and halide sensor YFP expressing CHO-K1 cells. Each well of the cell cultured 96-well plate was washed with PBS of 200 μL twice, and was filled with HEPES buffer solution (140 mM NaCl, 5 mM KCl, 1 mM MgCl2, 1 mM CaCl2, 10 mM glucose and 10 mM HEPES (pH 7.4)), respectively. […] After culturing at 37° C. for 10 minutes, the 96-well plate was positioned on FLUOstar Omega microplate reader (BMG Labtech, Ortenberg, Germany) for fluorescence analysis.
By continuously (400 ms per point) recording fluorescence for 1 second (base line), each well was individually analyzed for pendrin-mediated I^− inflow, and then at 1 second, 50 μL of NaI-substituted HEPES buffer solution (140 mM NaI, 5 mM KCl, 1 mM MgCl2, 1 mM CaCl2, 10 mM glucose and 10 mM HEPES (pH 7.4)) was added using a liquid injector and the YFP fluorescence was recorded for 5 seconds. The initial iodide inflow rate was determined from the initial slope of fluorescence by nonlinear regression, after injection the iodide.

| Structure (SMILES) | inhibition at 30 µM [%] |
| --- | --- |
| CCC(/C=C1\Sc2ccc(OC)cc2N1CC)=C1N=C(c2ccccc2)OC1=O [F68, 4-((Z)-1-(3-ethyl-5-methoxybenzo[d]thiazol-2(3H)-ylidene)butan-2-ylidene)-2-phenyloxazol-5(4H)-one] | 4.3 |
| O=C1OC(Cc2ccc(-c3ccccc3)cc2)=NC1=Cc1ccc[nH]1 [F25, 4-((1H-pyrrol-2-yl)methylene)-2-([1,1′-biphenyl]-4-ylmethyl)oxazol-5(4H)-one] | 3.8 |
| CN(C)S(=O)(=O)c1cccc(C2=NC(=Cc3cccs3)C(=O)O2)c1 [F116, N,N-dimethyl-3-(5-oxo-4-(thiophen-2-ylmethylene)-4,5-dihydrooxazol-2-yl) benzenesulfonamide] | 2.6 |
| O=C1OC(c2ccc(Br)cc2)=NC1=Cc1ccsc1 [F51, 2-(4-Bromophenyl)-4-(thiophen-3-ylmethylene)oxazol-5(4H)-one] | 2.7 |
| Cc1ccc(C2=NC(=Cc3cccs3)C(=O)O2)s1 [F111, 2-(5-methylthiophen-2-yl)-4-(thiophen-2-ylmethylene)oxazol-5 (4H)-one] | 30.8 |
| O=C1OC(c2ccc([N+](=O)[O-])cc2Cl)=NC1=Cc1cccs1 [F93, 2-(2-Chloro-4-nitrophenyl)-4-(thiophen-2-ylmethylene)oxazol-5(4H)-one] | 2.5 |
| O=C1OC(c2cccs2)=NC1=Cc1cccs1 [F89, 2-(Thiophen-2-yl)-4-(thiophen-2-ylmethylene)oxazol-5(4H)-one] | 2.8 |
| CC(C)(C)c1ccc(C2=NC(=Cc3cnn(-c4ccccc4)c3)C(=O)O2)cc1 [F124, 2-(4-(tert-butyl)phenyl)-4-((1-phenyl-1H-pyrazol-4-yl)methylene)oxazol-5 (4H)-one] | 2 |
| CC(C)(C)c1ccc(C2=NC(=Cc3cncs3)C(=O)O2)cc1 [F2, 2-(4-(tert-butyl)phenyl)-4-(thiazol-5-ylmethylene)oxazol-5(4H)-one] | 57.5 |
| CC(C)(C)c1ccc(C2=NC(=Cc3ccccc3)C(=O)O2)cc1 [F44, 4-Benzylidene-2-(4-(tert-butyl)phenyl)oxazol-5 (4H)-one] | 3.5 |
| CC(C)(C)c1ccc(C(=O)NC(=Cc2cccs2)C(=O)O)cc1 [G3, 2-(4-(tert-butyl)benzamido)-3-(thiophen-2-yl)acrylate] | 55.6 |
| CC(C)(C)c1ccc(C(=O)NC(=Cc2ccsc2)C(=O)O)cc1 [G8, 2-(4-(tert-butyl)benzamido)-3-(thiophen-3-yl)acrylate] | 68.8 |
| Cc1cc(C)cc(C2=NC(=Cc3ccc[nH]3)C(=O)O2)c1 [F149, 4-((1H-pyrrol-2-yl)methylene)-2-(3,5-dimethylphenyl)oxazol-5(4H)-one] | 4.8 |
| CC(C)Cc1ccc(C(=O)NC(=Cc2ccc[nH]2)C(=O)O)cc1 [G26, 2-(4-Isobutylbenzamido)-3-(1H-pyrrol-2-yl)acrylate] | 85.6 |
| CC(C)NS(=O)(=O)c1ccc(C2=NC(=Cc3cccs3)C(=O)O2)cc1 [F36, N-isopropyl-4-(5-oxo-4-(thiophen-2-ylmethylene)-4,5-dihydrooxazol-2-yl)benzene sulfonamide] | 89.6 |
| O=C1OC(c2ccc(Oc3ccccc3)cc2)=NC1=Cc1cccs1 [F95, 2-(4-Phenoxyphenyl)-4-(thiophen-2-ylmethylene)oxazol-5(4H)-one] | 3.8 |

| Structure (SMILES) | inhibition at 30 µM [%] |
| --- | --- |
| O=C1OC(c2ccc(C(F)(F)F)cc2)=NC1=Cc1ccsc1 [F18, 4-(Thiophen-3-ylmethylene)-2-(4-(trifluoromethyl)phenyl)oxazol-5(4H)-one] | 3.4 |
| Cc1ccc(C2=NC(=Cc3cn(-c4ccccc4)nc3-c3ccccc3)C(=O)O2)cc1 [F83, 4-((1,3-Diphenyl-1H-pyrazol-4-yl)methylene)-2-(p-tolyl)oxazol-5(4H)-one] | 2.4 |
| O=C1OC(c2cccc3ccccc23)=NC1=Cc1ccc[nH]1 [F30, 4-((1H-pyrrol-2-yl)methylene)-2-(naphthalen-1-yl)oxazol-5(4H)-one] | 3.9 |
| COC(=O)C(=Cc1ccc[nH]1)NC(=O)c1ccc(C(F)(F)F)cc1 [G15, Methyl 3-(1H-pyrrol-2-yl)-2-(4-(trifluoromethyl)benzamido)acrylate] | 3.4 |
| CC(C)(C)c1ccc(C(=O)NC(=Cc2csc3ccccc23)C(=O)O)cc1 [G25, 3-(Benzo[b]thiophen-3-yl)-2-(4-(tert-butyl)benzamido)acrylate] | 42.1 |
| O=C(O)C(=Cc1ccco1)NC(=O)c1ccc(C(F)(F)F)cc1 [G18, 3-(Furan-2-yl)-2-(4-(trifluoromethyl)benzamido)acrylate] | 2.7 |
| O=C1OC(c2ccc(Cl)c([N+](=O)[O-])c2)=NC1=Cc1cccs1 [F91, 2-(4-Chloro-3-nitrophenyl)-4-(thiophen-2-ylmethylene)oxazol-5(4H)-one] | 3.9 |
| CCCCc1ccc(C(=O)NC(=Cc2cccs2)C(=O)O)cc1 [G12, 2-(4-Butylbenzamido)-3-(thiophen-2-yl)acrylate] | 48.1 |
| O=C1OC(c2ccc3c(c2)OCO3)=NC1=Cc1cccs1 [F97, 2-(Benzo[d][1,3]dioxoyl-5-yl)-4-(thiophen-2-ylmethylene)oxazol-5(4H)-one] | 2.9 |
| COC(=O)C(=Cc1cccn1-c1ccccc1)NC(=O)c1ccc(C(C)(C)C)cc1 [G14, Methyl 2-(4-(tert-butyl)benzamido)-3-(1-phenyl-1H-pyrrol-2-yl)acrylate] | 2.5 |
| Cc1ccc(C=C2N=C(c3cccs3)OC2=O)s1 [F115, 4-((5-Methylthiophen-2-yl)methylene)-2-(thiophen-2-yl)oxazol-5(4H)-one] | 2.8 |
| Cc1ncsc1C=C1N=C(c2ccc(Br)cc2)OC1=O [F22, 2-(4-Bromophenyl)-4-((4-methylthiazol-5-yl)methylene)oxazol-5(4H)-one] | 2.4 |
| COC(=O)C(=Cc1ccco1)NC(=O)c1ccc(C(C)(C)C)cc1 [G4, Methyl 2-(4-(tert-butyl)beznamido)-3-(furan-2-yl)acrylate] | 4.4 |
| Cc1ccc(C=C2N=C(c3ccc(C)s3)OC2=O)s1 [F119, 2-(5-methylthiophen-2-yl)-4-((5-methylthiophen-2-yl)methylene)oxazol-5 (4H)-one] | 1.7 |
| O=C1OC(c2cccs2)=NC1=Cc1ccc(Br)s1 [F118, 4-((5-Bromothiophen-2-yl)methylene)-2-(thiophen-2-yl)oxazol-5(4H)-one] | 2.1 |
| CCN(CC)S(=O)(=O)c1cccc(C2=NC(=Cc3cnn(C)c3)C(=O)O2)c1 [F131, N,N-diethyl-3-(4-((1-methyl-1H-pyrazol-4-yl)methylene)-5-oxo-4,5-dihydrooxazol-2-yl)benzenesulfonamide] | 2.1 |

Same assay, conditions: compounds showing pendrin inhibitory activity of 50% or more at 30 μM; read-out: IC50

| Structure (SMILES) | IC50 [µM] |
| --- | --- |
| CC(C)(C)c1ccc(C2=NC(=Cc3cncs3)C(=O)O2)cc1 [F2, 2-(4-(tert-butyl)phenyl)-4-(thiazol-5-ylmethylene)oxazol-5(4H)-one] | 26.9 ± 2.95 |
| CC(C)(C)c1ccc(C(=O)NC(=Cc2cccs2)C(=O)O)cc1 [G3, 2-(4-(tert-butyl)benzamido)-3-(thiophen-2-yl)acrylate] | 26.8 ± 2.54 |
| CC(C)(C)c1ccc(C(=O)NC(=Cc2ccsc2)C(=O)O)cc1 [G8, 2-(4-(tert-butyl)benzamido)-3-(thiophen-3-yl)acrylate] | 20.2 ± 2.12 |
| CC(C)Cc1ccc(C(=O)NC(=Cc2ccc[nH]2)C(=O)O)cc1 [G26, 2-(4-Isobutylbenzamido)-3-(1H-pyrrol-2-yl)acrylate] | 10.2 ± 1.38 |
| CC(C)NS(=O)(=O)c1ccc(C2=NC(=Cc3cccs3)C(=O)O2)cc1 [F36, N-isopropyl-4-(5-oxo-4-(thiophen-2-ylmethylene)-4,5-dihydrooxazol-2-yl)benzene sulfonamide] | 14.8 ± 2.01 |
